Data from PubChem BioAssay (NCI).
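GI50: concentration for 50% inhibition of growth. TGI: total growth inhibition.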

Tests used:
Test in all cases: NCI anticancer screen, dose series, 384-well format
DU-145 prostate = system: DU-145 prostate
RXF 393 renal = system: RXF 393 renal
OVCAR-4 ovarian = system: OVCAR-4 ovarian
786-0 renal = system: 786-0 renal
MCF7 breast = system: MCF7 breast
SR leukemia = system: SR leukemia
SF-295 CNS = system: SF-295 CNS
MDA-MB-231 breast = system: MDA-MB-231 breast
PC-3 prostate = system: PC-3 prostate
RPMI-8226 leukemia = system: RPMI-8226 leukemia
HL-60(TB) leukemia = system: HL-60(TB) leukemia
T-47D breast = system: T-47D breast
MDA-MB-435 melanoma = system: MDA-MB-435 melanoma
CAKI-1 renal = system: CAKI-1 renal
SW-620 colon = system: SW-620 colon
MDA-MB-468 breast = system: MDA-MB-468 breast
HCT-15 colon = system: HCT-15 colon
TK-10 renal = system: TK-10 renal
OVCAR-8 ovarian = system: OVCAR-8 ovarian
SF-539 CNS = system: SF-539 CNS
SNB-19 CNS = system: SNB-19 CNS
NCI/ADR-RES ovarian = system: NCI/ADR-RES ovarian
NCI-H226 lung = system: NCI-H226 lung
NCI-H322M lung = system: NCI-H322M lung
KM12 colon = system: KM12 colon
EKVX NSCLC = system: EKVX NSCLC
HCC-2998 colon = system: HCC-2998 colon
IGROV1 ovarian = system: IGROV1 ovarian
SK-OV-3 ovarian = system: SK-OV-3 ovarian
OVCAR-5 ovarian = system: OVCAR-5 ovarian
A549 NSCLC = system: A549 NSCLC
SK-MEL-28 melanoma = system: SK-MEL-28 melanoma
M14 melanoma = system: M14 melanoma
HOP-92 NSCLC = system: HOP-92 NSCLC
HT29 colon = system: HT29 colon
SNB-75 CNS = system: SNB-75 CNS
NCI-H23 lung = system: NCI-H23 lung
MOLT-4 leukemia = system: MOLT-4 leukemia
LOX IMVI melanoma = system: LOX IMVI melanoma
SK-MEL-5 melanoma = system: SK-MEL-5 melanoma
HS 578T breast = system: HS 578T breast
NCI-H460 NSCLC = system: NCI-H460 NSCLC
UO-31 renal = system: UO-31 renal
UACC-257 melanoma = system: UACC-257 melanoma
SF-268 CNS = system: SF-268 CNS
U251 glioblastoma = system: U251 glioblastoma
MALME-3M melanoma = system: MALME-3M melanoma
COLO 205 colon = system: COLO 205 colon
SN12C renal = system: SN12C renal
HCT-116 colon = system: HCT-116 colon
ACHN renal = system: ACHN renal
OVCAR-3 ovarian = system: OVCAR-3 ovarian
UACC-62 melanoma = system: UACC-62 melanoma
A498 renal = system: A498 renal
HOP-62 NSCLC = system: HOP-62 NSCLC
NCI-H522 lung = system: NCI-H522 lung
BT-549 breast = system: BT-549 breast

Cc1ccc(NC(=O)c2ccc(CN3CCN(C)CC3)cc2)cc1Nc1nccc(-c2cccnc2)n1
GI50 (DU-145 prostate): 17.1 µM | TGI (DU-145 prostate): 31.1 µM | GI50 (RXF 393 renal): 3.61 µM | TGI (RXF 393 renal): 16.2 µM | GI50 (OVCAR-4 ovarian): 16.2 µM | TGI (OVCAR-4 ovarian): 30.7 µM | GI50 (786-0 renal): 2.87 µM | TGI (786-0 renal): 7.97 µM | GI50 (MCF7 breast): 10.6 µM | TGI (MCF7 breast): 22.7 µM | GI50 (SR leukemia): 8.83 µM | TGI (SR leukemia): 19.6 µM | GI50 (SF-295 CNS): 14.2 µM | TGI (SF-295 CNS): 27.8 µM | GI50 (MDA-MB-231 breast): 12.6 µM | TGI (MDA-MB-231 breast): 26.7 µM | GI50 (PC-3 prostate): 16 µM | TGI (PC-3 prostate): 31.1 µM | GI50 (RPMI-8226 leukemia): 11.2 µM | TGI (RPMI-8226 leukemia): 23.3 µM | GI50 (HL-60(TB) leukemia): 5.97 µM | TGI (HL-60(TB) leukemia): 16 µM | GI50 (T-47D breast): 6.92 µM | TGI (T-47D breast): 20 µM | GI50 (MDA-MB-435 melanoma): 16.7 µM | TGI (MDA-MB-435 melanoma): 31.4 µM | GI50 (CAKI-1 renal): 16.7 µM | TGI (CAKI-1 renal): 30.5 µM | GI50 (SW-620 colon): 20.6 µM | TGI (SW-620 colon): 41.2 µM | GI50 (MDA-MB-468 breast): 5.1 µM | TGI (MDA-MB-468 breast): 17.9 µM | GI50 (HCT-15 colon): 2.48 µM | TGI (HCT-15 colon): 5.73 µM | GI50 (TK-10 renal): 20.3 µM | TGI (TK-10 renal): 43.1 µM | GI50 (OVCAR-8 ovarian): 14.8 µM | TGI (OVCAR-8 ovarian): 28.4 µM | GI50 (SF-539 CNS): 9.13 µM | TGI (SF-539 CNS): 21.4 µM | GI50 (SNB-19 CNS): 22.1 µM | TGI (SNB-19 CNS): 49.3 µM | GI50 (NCI/ADR-RES ovarian): 17.2 µM | TGI (NCI/ADR-RES ovarian): 32.1 µM | GI50 (NCI-H226 lung): 6.87 µM | TGI (NCI-H226 lung): 19.1 µM | GI50 (NCI-H322M lung): 8.53 µM | TGI (NCI-H322M lung): 21.2 µM | GI50 (KM12 colon): 14.3 µM | TGI (KM12 colon): 27.6 µM | GI50 (EKVX NSCLC): 15.5 µM | TGI (EKVX NSCLC): 29.8 µM | GI50 (HCC-2998 colon): 5.93 µM | TGI (HCC-2998 colon): 17.5 µM | GI50 (IGROV1 ovarian): 12.5 µM | TGI (IGROV1 ovarian): 25.2 µM | GI50 (SK-OV-3 ovarian): 19.7 µM | TGI (SK-OV-3 ovarian): 37.1 µM | GI50 (OVCAR-5 ovarian): 13.4 µM | TGI (OVCAR-5 ovarian): 36.8 µM | GI50 (A549 NSCLC): 16.5 µM | TGI (A549 NSCLC): 35.1 µM | GI50 (SK-MEL-28 melanoma): 14.4 µM | TGI (SK-MEL-28 melanoma): 27.7 µM | GI50 (M14 melanoma): 5.66 µM | TGI (M14 melanoma): 16.7 µM | GI50 (HOP-92 NSCLC): 13.7 µM | TGI (HOP-92 NSCLC): 28.1 µM | GI50 (HT29 colon): 2.66 µM | TGI (HT29 colon): 6.67 µM | GI50 (SNB-75 CNS): 21.7 µM | TGI (SNB-75 CNS): 36.2 µM | GI50 (NCI-H23 lung): 11.5 µM | TGI (NCI-H23 lung): 24.3 µM | GI50 (MOLT-4 leukemia): 4.23 µM | TGI (MOLT-4 leukemia): 15.4 µM | GI50 (LOX IMVI melanoma): 4.25 µM | TGI (LOX IMVI melanoma): 14.9 µM | GI50 (SK-MEL-5 melanoma): 10.4 µM | TGI (SK-MEL-5 melanoma): 22.2 µM | GI50 (HS 578T breast): 12.9 µM | TGI (HS 578T breast): 25.6 µM | GI50 (NCI-H460 NSCLC): 16.6 µM | TGI (NCI-H460 NSCLC): 30.9 µM | GI50 (UO-31 renal): 15.8 µM | TGI (UO-31 renal): 30.6 µM | GI50 (UACC-257 melanoma): 2.49 µM | TGI (UACC-257 melanoma): 6.18 µM | GI50 (SF-268 CNS): 18.7 µM | TGI (SF-268 CNS): 36.2 µM | GI50 (U251 glioblastoma): 14.1 µM | TGI (U251 glioblastoma): 28 µM | GI50 (MALME-3M melanoma): 2.58 µM | TGI (MALME-3M melanoma): 5.42 µM | GI50 (COLO 205 colon): 16.3 µM | TGI (COLO 205 colon): 29.9 µM | GI50 (SN12C renal): 24.7 µM | TGI (SN12C renal): 64.4 µM | GI50 (HCT-116 colon): 6.25 µM | TGI (HCT-116 colon): 18.8 µM | GI50 (ACHN renal): 15.4 µM | TGI (ACHN renal): 29 µM | GI50 (OVCAR-3 ovarian): 17.1 µM | TGI (OVCAR-3 ovarian): 31.8 µM | GI50 (UACC-62 melanoma): 13.6 µM | TGI (UACC-62 melanoma): 26.7 µM | GI50 (A498 renal): 6.8 µM | TGI (A498 renal): 19 µM | GI50 (HOP-62 NSCLC): 14.2 µM | TGI (HOP-62 NSCLC): 27.4 µM | GI50 (NCI-H522 lung): 12 µM | TGI (NCI-H522 lung): 24.7 µM | GI50 (BT-549 breast): 12.1 µM | TGI (BT-549 breast): 24.6 µM
